Data from article PMC12702354, “Engineered an ultrasmall curcumin oral nanoformulation restores intestinal integrity and gut microbiota dysbiosis” (Materials Today Bio, 2025).

Tested on: faecal metabolites of gut bacteria
Test: Faecal metabolome analysis (GC-MS) in VAN-induced mice
Format: in vivo, C57BL/6 mice
Conditions: faeces, VAN vs treated group, n = 5
Procedure: The extract of faecal samples (40 mg/ml methanol) was prepared as described in the previous method. The obtained dry extract was derivatized with methoxyamine-HCl and BSTFA (Sigma-Aldrich, USA), followed by incubation for 1 h at 37 °C. Subsequently, the supernatant (10 μl) obtained after centrifugation at 10,000×g for 12 min was injected into an Agilent GC-MS. The injector, transfer line, and ion source were set at 280 °C, 150 °C and 230 °C, respectively. At the beginning, we set the oven temperature to 60 °C, and then increased at 60 °C/min for 2 min, followed by an increase at the rate of 10 °C/min until reaching 300 °C.

COc1cc(/C=C/C(=O)CC(=O)/C=C/c2ccc(O)c(OC)c2)ccc1O [free-CUR, curcumin]
Fold change, 2,4,5-Trihydroxypentanoic acid: 0.778
Fold change, 2-Hydroxyglutaric acid: 3.491
Fold change, 4-Aminobutyric acid: 0.998
Fold change, 4-Hydroxy-3-methoxybenzoic acid: 0.619
Fold change, 4-Hydroxyproline: 0.924
Fold change, 5-Aminovaleric acid: 1.101
Fold change, 9,12,15-Octadecatrienoic acid: 1.217
Fold change, 9-(Z)-Hexadecenoic acid: 1.102
Fold change, Acetate: 0.733
Fold change, Adenine: 0.325
Fold change, Alanine: 0.743
Fold change, Arabitol: 0.432
Fold change, Aspartic acid: 3.075
Fold change, Azelaic acid: 0.849
Fold change, Benzenepropanoic acid: 0.368
Fold change, Butyrate: 0.168
Fold change, Cholesta-8,24-dien-3-ol, 4-methyl-, (3β,4α): 1.313
Fold change, D-fructose: 1.400
Fold change, D-glucose: 1.069
Fold change, Eicosanoic acid: 0.404
Fold change, Erythronic acid: 1.754
Fold change, Ethanolamine: 1.266
Fold change, Fucose: 0.580
Fold change, Galacturonic acid: 1.024
Fold change, Gentiobiose: 2.357
Fold change, Gluconic acid: 1.119
Fold change, Glutaric acid: 0.708
Fold change, Glycerol: 0.926
Fold change, Glycerol-3-phosphate: 2.032
Fold change, Glycolic acid: 2.144
Fold change, Hexadecanoic acid: 1.155
Fold change, Hexanoic acid: 1.359
Fold change, Homoserine: 2.352
Fold change, Hypoxanthine: 0.916
Fold change, Isoleucine: 1.058
Fold change, L-rhamnose: 0.191
Fold change, Lactic acid: 0.573
Fold change, Leucine: 0.704
Fold change, Lysine: 0.526
Fold change, Methionine: 1.121
Fold change, Nicotinic acid: 0.616
Fold change, Octadecadienoic acid: 1.285
Fold change, Ornithine: 0.453
Fold change, Orotic acid: 1.443
Fold change, Pantothenic acid: 0.519
Fold change, Pentadecanoic acid: 0.271
Fold change, Phenylalanine: 0.989
Fold change, Phosphoric acid: 1.212
Fold change, Propionate: 1.530
Fold change, Ribitol: 1.340
Fold change, Serine: 0.538
Fold change, Sorbitol: 1.816
Fold change, Tetradecanoic acid: 0.349
Fold change, Threitol: 2.116
Fold change, Threonic acid: 1.362
Fold change, Threonine: 1.275
Fold change, Thymine: 1.214
Fold change, Tricosadiynoic acid: 0.767
Fold change, Tryptophan: 1.117
Fold change, Uracil: 0.561
Fold change, Uric acid: 0.772
Fold change, beta-Alanine: 1.217
Fold change, myo-Inositol: 2.179
Fold change, myo-Inositol-1-phosphate: 0.584
